Experimental data published in publication PMC6890717, “Conversion of Cytochrome P450 2D6 of Human Into a FRET-Based Tool for Real-Time Monitoring of Ajmalicine in Living Cells” (Frontiers in Bioengineering and Biotechnology, 2019).

What was measured:
[1] = system: FLIP-Ajn (ECFP_CYP2D6_Venus, human Cytochrome P450 2D6); assay: Specificity analysis of FLIP-Ajn with CYP2D6 inhibitors/substrates (FRET ratio); conditions: 10 mM compound added to FLIP-Ajn; change <0.2 regarded as insignificant
Experimental: Characterization of nanosensor was performed using microplate reader (Synergy H1, Biotek, USA). […] After spectral analysis, pH dependence, specificity, and affinity of the nanosensor were studied. […] Specificity testing of the developed nanosensor was carried out by the addition of 10 mM of various CYP2D6 inhibitors/substrates to FLIP-Ajn.

[2] = system: E. coli BL21(DE3) cells; assay: Real-time monitoring of ajmalicine in bacterial cells expressing FLIP-Ajn; assay type: cell-based, Escherichia coli; conditions: 10 mM ajmalicine added externally; increased from 0.2; 30 min recording
Experimental: The developed recombinant construct pRSET-B_ECFP_CYP2D6_Venus (FLIP-Ajn) was introduced in E. coli BL21(DE3) cells and grown at 37°C (150 rpm) in an incubator shaker until O.D.600 of the bacterial growth reached 0.6. The cells were then treated with 0.5 mM IPTG and kept for 24 h at 21°C with continuous shaking for the expression of the nanosensor protein. The real-time monitoring of ajmalicine in the bacterial cells was carried out by the addition of 10 mM ajmalicine to the bacterial culture placed in the multi-well plates. Ratio of emission intensities of Venus/ECFP were recorded for 30 min and data were collected at every 5 min intervals. The control experiment includes the bacterial cells without ajmalicine. The excitation filters/slits used were same as described in the previous analysis.

[3] = system: Catharanthus roseus cells; assay: FRET ratio in transformed plant suspension culture (confocal); assay type: cell-based; conditions: slow and consistent addition of ajmalicine to suspension culture; increased from 0.7
Experimental: Leaf explants were used in the study for initiating callus. The segments of Catharanthus roseus leaves were collected from the herbal garden of Jamia Hamdard, New Delhi. The collected explants were then washed continuously for 20 min under tap water. The explants were then treated with 0.5% cetrimide and 0.1% HgCl2 for 10 and 5 min, respectively. Further sequential washing with 70% alcohol and sterilized distilled water for 1 min were performed. The culturing of sterile explants was done on MS (Murashige and Skoog, [1962]) medium containing 0.5 μM 2,4-D, 3% sucrose, and 0.62% agar. The pH of the medium was maintained to 5.65, and the cultured tubes were kept in a culture room at 25 ± 2°C.
Agrobacterium tumefaceins strain EHA105 were transformed with pEarleyGate100_ECFP_CYP2D6_Venus, and the suspension culture was initiated after inoculating a single colony of transformed Agrobacterium strain in LB medium. The medium was supplemented with […], and […], and the culture was maintained at 28°C for 36 h. […]
Suspension culture of Catharanthus roseus transformed with pEarleyGate100_ECFP_CYP2D6_Venus was observed under a Leica confocal microscope with a 10x objective. The culture was subjected to fluorescence analysis, and the ratio of Venus/ECFP emission intensities was recorded after excitation at 430 nm. […]

[4] = system: Saccharomyces cerevisiae/URA3 strain BY4247; assay: Real-time monitoring of ajmalicine in yeast cells expressing FLIP-Ajn (confocal); assay type: cell-based; conditions: 10 mM ajmalicine
Experimental: Gateway-cloned pYES-DEST_ECFP_CYP2D6_Venus was transformed in Saccharomyces cerevisiae/URA3 strain BY4247. The transformed yeast cells were cultured in synthetic defined (SD) medium containing dextrose (2%) as a source of carbon and galactose (1%) for induction. The expressed yeast cells were subjected to confocal microscopic analysis with Leica TCS-SPE scan head and 63x objective lens with oil immersion system. The expressed culture was provided with 10 mM ajmalicine. Ratio of emission intensities of Venus/ECFP were recorded for 10 min and data were collected at every 20 s intervals.

[5] = system: HEK-293T cells; assay: Real-time monitoring of ajmalicine in transfected animal cells (confocal); assay type: cell-based, human; conditions: 10 mM ajmalicine; 0.4 ± 0.05 at 0 s
Experimental: The HEK-293T (human embryonic kidney) cells were cultured in Dulbecco's modified Eagle's medium containing 50 μg/ml ampicillin, 10% fetal calf serum, and CO2 in an incubator shaker at 37°C. Calcium phosphate-mediated transient transfection of HEK-293T cells with pCDNA_ECFP_CYP2D6_Venus was carried out in a 6-well culture plate and was allowed to express for 2 days. Washing buffer comprised of 50 mM NaCl, 1 mM MgCl2, 5 mM KCl, 5 mM D-glucose, and 25 mM HEPES (pH 7.2–7.4). After a gap of 2 days after transfection, the cultured cells were set for imaging analysis using a confocal microscope with 1.53 numerical aperture, cooled charge-coupled camera, and 63x oil immersion objective lens. The culture was supplemented with 10 mM ajmalicine and the images were taken. Ratio of emission intensities of Venus/ECFP were recorded for 10 min. The laser setting used for the analysis was same for both yeast and animal cells. Data were collected after an interval of 20 s and the exposure time set for acquiring images was 300 ms.

FRET ratio change relative to control [1] | SMILES | FRET ratio after addition of ajmalicine [2] | FRET ratio after addition of ajmalicine [3] | increased FRET ratio ([4]; Figure 8) | FRET ratio after addition of ajmalicine ([4]; increased from 0.65 within 10 min) | FRET ratio at 400 s [5]
~ 0.14 | COC(=O)C1=CO[C@@H](C)[C@H]2Cn3ccc4c5ccccc5nc-4c3C[C@H]12 [serpentine] | – | – | – | – | –
– | COC(=O)C1=CO[C@@H](C)[C@H]2CN3CCc4c([nH]c5ccccc45)[C@@H]3C[C@H]12 [ajmalicine] | 0.4 | 3.9 | ~ 1 | 1.61 | 0.85 ± 0.05
